Measured values published in patent publication US7700592B2, “α2C adrenoreceptor agonists” (Schering Corporation, priority 2005, dated 2010).

Biological target: T1, α2C receptor (Homo sapiens, UniProt P18825)
T1 sequence (P18825 1-462): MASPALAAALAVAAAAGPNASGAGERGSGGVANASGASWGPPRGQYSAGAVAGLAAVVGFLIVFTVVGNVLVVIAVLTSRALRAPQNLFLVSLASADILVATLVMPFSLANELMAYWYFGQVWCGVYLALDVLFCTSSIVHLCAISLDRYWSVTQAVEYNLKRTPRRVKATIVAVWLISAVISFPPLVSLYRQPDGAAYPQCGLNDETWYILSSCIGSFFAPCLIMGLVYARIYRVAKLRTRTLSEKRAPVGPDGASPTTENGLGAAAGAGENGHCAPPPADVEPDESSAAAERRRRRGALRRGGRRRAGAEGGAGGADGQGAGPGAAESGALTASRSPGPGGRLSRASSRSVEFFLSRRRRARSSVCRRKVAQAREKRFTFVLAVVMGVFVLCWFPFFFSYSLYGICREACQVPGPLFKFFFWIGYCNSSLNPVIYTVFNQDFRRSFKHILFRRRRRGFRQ
Test: GTPγS assay, efficacy agonist activity (Emax) for α2C
Assay type: biochemical
Conditions: active agonist = efficacy at α2C ≧30% Emax; functionally selective = additionally efficacy at α2A ≦30% Emax (GTPγS assay)
Procedure, shortened: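 Emax measured in a [^35S]GTPγS functional assay at the human α2C adrenoceptor, following Umland et al. An efficacy of ≧30% Emax defines an active α2C agonist.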

Structure (SMILES)	Efficacy agonist activity (Emax, GTPγS assay) for α2C: evaluated as active or functionally selective agonist
O=C(Nc1ccc2c(c1)N(Cc1c[nH]cn1)CCO2)OCc1cccnc1 [Compound 318]	active or functionally selective agonists of the α2C receptor subtype
CCN(C(=O)OCCSC)c1ccc2c(c1)N(Cc1c[nH]cn1)CCO2 [Compound 319]	active or functionally selective agonists of the α2C receptor subtype
CCN(C(=O)OCc1cc(C)nn1C)c1ccc2c(c1)N(Cc1c[nH]cn1)CCO2 [Compound 323]	active or functionally selective agonists of the α2C receptor subtype
CCN(C(=O)OCc1cc(C)n(C)n1)c1ccc2c(c1)N(Cc1c[nH]cn1)CCO2 [Compound 324]	active or functionally selective agonists of the α2C receptor subtype
CCN(c1ccc2c(c1)N(Cc1c[nH]cn1)CCO2)c1ccccn1 [Compound 326]	active or functionally selective agonists of the α2C receptor subtype
CCN(c1ccc2c(c1)N(Cc1c[nH]cn1)CCO2)c1nccs1 [Compound 327]	active or functionally selective agonists of the α2C receptor subtype
CCN(c1ccc2c(c1)N(Cc1c[nH]cn1)CCO2)c1cnccn1 [Compound 329]	active or functionally selective agonists of the α2C receptor subtype
CCN(c1ccc2c(c1)N(Cc1c[nH]cn1)CCO2)c1ncc([N+](=O)[O-])s1 [Compound 331]	active or functionally selective agonists of the α2C receptor subtype
CN(c1ccc2c(c1)N(Cc1c[nH]cn1)CCO2)c1ccccn1 [Compound 332]	active or functionally selective agonists of the α2C receptor subtype
CCN(c1ccc2c(c1)N(Cc1c[nH]cn1)CCO2)S(=O)(=O)CCN1C(=O)c2ccccc2C1=O [Compound 335]	active or functionally selective agonists of the α2C receptor subtype
Cc1cc(COC(=O)Nc2ccc3c(c2)N(Cc2c[nH]cn2)CCO3)n(C)n1 [Compound 340]	active or functionally selective agonists of the α2C receptor subtype
